Assay results: patent US4677113A, “Di-t-butylphenols substituted by a thenoyl group” (Riker Laboratories, Inc., priority 1986, dated 1987)
Read-outs that look alike come from different tables or passages of the source.

Experiments:
[1] = system: leukotriene synthesis in homogenized rat basophil leukemia cells; assay: cell free leukotriene biosynthesis system (homogenized rat basophil leukemia cells, radioimmunoassay); type: biochemical; conditions: synthesis initiated by arachidonate; drug preincubated five minutes; read-out: IC50, leukotriene synthesis inhibition
Experimental: This test utilizes the cell free leukotriene biosynthesis system of M. Steinhoff et al. Biochim. Acta. 68, 28 (1980), incorporated herein by reference, which consists of homogenized rat basophil leukemia cells. Leukotriene synthesis is initiated by the addition of arachidonate. Solutions are centrifuged and supernatants assayed using a radioimmunoassay developed as described by Aeringhaus et al. FEBS Letter 146, 111-114. Drugs are dissolved in ethanol or dimethyl sulfoxide and then preincubated for five minutes. Phenidone is used as a positive control.

[2] = system: bronchoconstriction in sensitized guinea pigs; assay: antigen-induced bronchoconstriction in sensitized guinea pigs (frequency of notching); type: in vivo, guinea pig; conditions: Cavia porcellus, male Hartley guinea pigs pretreated with antihistamine, read-out: ED40, inhibition of bronchoconstriction
Experimental: Preferably, bronchoconstriction in sensitized guinea pigs is measured upon antigen challenge. This test is described in broad terms by Piechuta, et al., Immunology, 38, 385 (1979) and more specifically by Hammerbeck and Swingle, Int. Archs. Allergy Appl. Immun. 74, 84-90 (1984), both references being incorporated herein by reference. It was used in a modified form as follows: Male Hartley guinea pigs (250-600 g) which were pretreated with an antihistamine, e.g., chlorpheniramine and then dosed intraperitoneally with a compound of the invention at a level of about 1 to 40 mg/kg 15 minutes prior to challenge or orally at the same dose 30 minutes prior to challenge were aerosol challenged with either water or ovalbumim at a concentration of 10 mg per ml. The animals were placed under an inverted dessicator jar (18×14 cm) with a constant flow of air coming into the chamber from a compressed-air source to prevent hypoxia. Air flow leaving the chamber and fluctuations due to respiration were monitored through a separate outlet with a Fleisch No. 0000 pneumotachograph (available from Beckman Instruments, Inc., Schiller Park, Ill.) coupled to a Beckman Type R dynograph (available from Beckman Instruments, Inc.). Aerosolization through a third outlet was made via a No. 4 DeVilbiss nebulizer (available from the DeVilbiss Company, Somerset, PA) for 90 seconds at 150 mm Hg. […]

- IC50 [1]: 15 µM
SMILES: CC(C)(C)c1cc(C(=O)c2ccc(C(=O)O)s2)cc(C(C)(C)C)c1O [5-(3',5'-di-t-butyl-4'-hydroxybenzoyl)thiophene-2-carboxylic acid]
- ED40 ([2]; ip, 0.25 h, administered intraperitoneally 15 minutes prior to ovalbumin aerosol challenge): < 10 mg/kg
- ED40 ([2]; po, 0.5 h, administered orally 30 minutes prior to ovalbumin aerosol challenge): < 25 mg/kg
